The supplement of paper PMC11851430, “Workflow for E3 Ligase Ligand Validation for PROTAC Development” (ACS Chemical Biology, 2025)

Key:
Assay in all cases: apparent dissociation constant Kd app (Kinobeads competition, EC50 x correction factor)
Conditions in all cases: lysate: Jurkat cell lysate
ACVR1 = ACVR1 (UniProt Q04771)
AURKB = AURKB (UniProt Q96GD4)
CDC42BPA = CDC42BPA (UniProt Q5VT25)
CDK1 = CDK1 (UniProt P06493)
CSK = CSK (UniProt P41240)
FGFR1 = FGFR1 (UniProt P11362)
ITK = ITK (UniProt Q08881)
LATS1 = LATS1 (UniProt O95835)
MAP3K11 = MAP3K11 (UniProt Q16584)
MAP3K4 = MAP3K4 (UniProt Q9Y6R4)
NEK9 = NEK9 (UniProt Q8TD19)
PAK4 = PAK4 (UniProt O96013)
PHKG2 = PHKG2 (UniProt P15735)
PKN1 = PKN1 (UniProt Q16512)
PRKAA1 = PRKAA1 (UniProt Q13131)
PRKCA = PRKCA (UniProt P17252)
PRKD3 = PRKD3 (UniProt O94806)
ROCK1 = ROCK1 (UniProt Q13464)
SRC = SRC (UniProt P12931)
TAOK2 = TAOK2 (UniProt Q9UL54)
TAOK3 = TAOK3 (UniProt Q9H2K8)
TGFBR1 = TGFBR1 (UniProt P36897)

PRKAA1, sequence (Q13131 whole entry, looked up): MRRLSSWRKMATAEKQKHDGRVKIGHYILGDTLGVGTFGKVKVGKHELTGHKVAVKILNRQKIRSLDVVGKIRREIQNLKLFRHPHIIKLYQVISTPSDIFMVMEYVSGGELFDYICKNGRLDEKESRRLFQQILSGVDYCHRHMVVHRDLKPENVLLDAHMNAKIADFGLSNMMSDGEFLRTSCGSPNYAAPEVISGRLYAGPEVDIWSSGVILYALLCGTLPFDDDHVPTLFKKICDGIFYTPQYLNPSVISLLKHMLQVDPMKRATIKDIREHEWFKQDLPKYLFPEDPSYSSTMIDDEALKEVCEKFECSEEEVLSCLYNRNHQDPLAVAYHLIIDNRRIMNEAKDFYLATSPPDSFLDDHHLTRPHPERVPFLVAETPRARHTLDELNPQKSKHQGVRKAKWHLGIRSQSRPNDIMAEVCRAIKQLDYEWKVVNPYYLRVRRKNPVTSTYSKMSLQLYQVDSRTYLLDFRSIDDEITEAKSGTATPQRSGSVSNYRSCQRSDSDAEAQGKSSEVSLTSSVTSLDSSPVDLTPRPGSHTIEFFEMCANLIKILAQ
CDC42BPA, sequence (Q5VT25 whole entry): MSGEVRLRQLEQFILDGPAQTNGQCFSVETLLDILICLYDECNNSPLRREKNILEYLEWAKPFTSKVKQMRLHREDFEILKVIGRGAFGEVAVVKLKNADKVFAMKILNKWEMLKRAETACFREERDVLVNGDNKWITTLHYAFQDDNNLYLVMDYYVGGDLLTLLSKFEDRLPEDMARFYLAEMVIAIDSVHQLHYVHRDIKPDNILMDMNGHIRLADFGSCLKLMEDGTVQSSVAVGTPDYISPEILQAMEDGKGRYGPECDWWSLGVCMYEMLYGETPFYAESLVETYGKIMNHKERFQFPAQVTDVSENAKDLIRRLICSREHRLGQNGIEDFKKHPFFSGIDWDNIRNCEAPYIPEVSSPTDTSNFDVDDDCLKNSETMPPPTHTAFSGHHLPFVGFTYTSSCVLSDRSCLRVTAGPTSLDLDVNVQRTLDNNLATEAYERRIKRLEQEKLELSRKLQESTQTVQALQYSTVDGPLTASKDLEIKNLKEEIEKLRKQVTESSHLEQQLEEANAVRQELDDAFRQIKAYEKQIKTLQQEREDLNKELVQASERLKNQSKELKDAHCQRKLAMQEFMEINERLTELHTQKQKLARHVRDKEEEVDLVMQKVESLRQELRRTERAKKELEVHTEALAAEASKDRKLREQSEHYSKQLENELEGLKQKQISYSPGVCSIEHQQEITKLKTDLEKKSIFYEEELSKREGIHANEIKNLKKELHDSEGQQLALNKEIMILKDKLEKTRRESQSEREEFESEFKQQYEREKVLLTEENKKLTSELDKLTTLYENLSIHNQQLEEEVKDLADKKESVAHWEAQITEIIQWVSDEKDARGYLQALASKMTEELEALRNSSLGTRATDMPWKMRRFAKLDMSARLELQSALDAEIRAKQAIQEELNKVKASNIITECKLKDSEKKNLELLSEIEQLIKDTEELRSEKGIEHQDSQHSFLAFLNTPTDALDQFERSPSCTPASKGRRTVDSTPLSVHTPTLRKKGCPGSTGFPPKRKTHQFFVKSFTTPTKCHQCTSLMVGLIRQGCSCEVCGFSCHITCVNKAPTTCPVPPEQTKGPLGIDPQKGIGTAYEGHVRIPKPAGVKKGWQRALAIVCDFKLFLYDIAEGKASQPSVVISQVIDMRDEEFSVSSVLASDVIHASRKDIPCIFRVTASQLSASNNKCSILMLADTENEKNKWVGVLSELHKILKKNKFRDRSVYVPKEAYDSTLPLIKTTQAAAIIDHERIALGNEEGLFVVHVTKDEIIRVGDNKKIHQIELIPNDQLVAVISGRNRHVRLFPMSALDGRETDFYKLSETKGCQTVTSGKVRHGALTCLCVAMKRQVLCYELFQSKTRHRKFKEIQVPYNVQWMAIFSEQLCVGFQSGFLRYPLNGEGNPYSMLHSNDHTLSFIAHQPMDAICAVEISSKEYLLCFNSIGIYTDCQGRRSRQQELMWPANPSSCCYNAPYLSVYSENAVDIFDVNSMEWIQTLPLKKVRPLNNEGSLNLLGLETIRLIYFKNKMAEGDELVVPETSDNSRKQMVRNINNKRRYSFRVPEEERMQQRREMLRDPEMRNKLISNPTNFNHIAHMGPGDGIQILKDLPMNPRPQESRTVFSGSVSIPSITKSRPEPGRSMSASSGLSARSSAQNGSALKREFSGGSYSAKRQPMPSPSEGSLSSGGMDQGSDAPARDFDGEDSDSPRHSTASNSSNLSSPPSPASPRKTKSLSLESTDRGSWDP
SRC, sequence (P12931 whole entry, looked up): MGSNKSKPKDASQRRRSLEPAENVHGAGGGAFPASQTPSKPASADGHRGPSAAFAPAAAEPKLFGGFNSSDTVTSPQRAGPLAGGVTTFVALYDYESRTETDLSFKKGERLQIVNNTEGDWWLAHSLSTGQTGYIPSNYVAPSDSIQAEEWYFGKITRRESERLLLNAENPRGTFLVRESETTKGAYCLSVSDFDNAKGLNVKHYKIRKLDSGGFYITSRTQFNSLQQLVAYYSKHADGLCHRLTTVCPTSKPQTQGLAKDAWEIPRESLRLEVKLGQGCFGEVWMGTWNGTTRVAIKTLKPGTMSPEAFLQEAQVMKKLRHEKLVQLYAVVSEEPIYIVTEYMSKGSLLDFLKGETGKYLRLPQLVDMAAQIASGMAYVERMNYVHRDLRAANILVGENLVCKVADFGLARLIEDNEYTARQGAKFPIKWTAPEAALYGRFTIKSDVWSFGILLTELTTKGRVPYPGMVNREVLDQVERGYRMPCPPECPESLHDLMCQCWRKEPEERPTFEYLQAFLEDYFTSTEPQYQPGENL
LATS1, sequence (O95835 whole entry): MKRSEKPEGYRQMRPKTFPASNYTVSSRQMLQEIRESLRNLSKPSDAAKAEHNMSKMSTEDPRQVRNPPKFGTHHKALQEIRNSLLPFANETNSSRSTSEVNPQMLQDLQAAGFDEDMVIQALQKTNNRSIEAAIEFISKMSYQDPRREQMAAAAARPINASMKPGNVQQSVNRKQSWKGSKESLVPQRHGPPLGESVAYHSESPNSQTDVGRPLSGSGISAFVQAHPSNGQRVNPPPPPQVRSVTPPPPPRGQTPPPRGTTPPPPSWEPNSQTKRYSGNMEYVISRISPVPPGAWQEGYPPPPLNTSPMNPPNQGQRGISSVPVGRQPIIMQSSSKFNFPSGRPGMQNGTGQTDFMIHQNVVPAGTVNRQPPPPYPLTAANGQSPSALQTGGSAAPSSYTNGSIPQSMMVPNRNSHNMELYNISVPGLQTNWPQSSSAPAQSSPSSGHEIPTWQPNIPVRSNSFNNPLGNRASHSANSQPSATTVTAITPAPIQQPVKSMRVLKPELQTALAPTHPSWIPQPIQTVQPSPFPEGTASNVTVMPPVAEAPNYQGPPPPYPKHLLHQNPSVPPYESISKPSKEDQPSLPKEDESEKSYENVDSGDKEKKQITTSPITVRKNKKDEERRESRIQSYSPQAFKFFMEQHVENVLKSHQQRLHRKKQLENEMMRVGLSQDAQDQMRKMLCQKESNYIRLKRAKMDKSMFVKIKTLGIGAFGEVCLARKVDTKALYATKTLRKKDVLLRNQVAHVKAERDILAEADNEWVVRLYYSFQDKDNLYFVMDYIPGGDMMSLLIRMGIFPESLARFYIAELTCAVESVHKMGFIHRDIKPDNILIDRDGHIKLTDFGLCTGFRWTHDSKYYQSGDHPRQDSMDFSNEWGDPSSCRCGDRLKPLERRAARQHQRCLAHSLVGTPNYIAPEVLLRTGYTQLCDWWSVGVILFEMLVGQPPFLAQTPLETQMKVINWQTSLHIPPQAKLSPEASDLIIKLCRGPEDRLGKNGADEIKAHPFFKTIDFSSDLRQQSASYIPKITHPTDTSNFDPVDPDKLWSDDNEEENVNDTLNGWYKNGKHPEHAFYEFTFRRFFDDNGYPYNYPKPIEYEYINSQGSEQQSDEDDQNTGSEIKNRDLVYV
PHKG2, sequence (P15735 whole entry): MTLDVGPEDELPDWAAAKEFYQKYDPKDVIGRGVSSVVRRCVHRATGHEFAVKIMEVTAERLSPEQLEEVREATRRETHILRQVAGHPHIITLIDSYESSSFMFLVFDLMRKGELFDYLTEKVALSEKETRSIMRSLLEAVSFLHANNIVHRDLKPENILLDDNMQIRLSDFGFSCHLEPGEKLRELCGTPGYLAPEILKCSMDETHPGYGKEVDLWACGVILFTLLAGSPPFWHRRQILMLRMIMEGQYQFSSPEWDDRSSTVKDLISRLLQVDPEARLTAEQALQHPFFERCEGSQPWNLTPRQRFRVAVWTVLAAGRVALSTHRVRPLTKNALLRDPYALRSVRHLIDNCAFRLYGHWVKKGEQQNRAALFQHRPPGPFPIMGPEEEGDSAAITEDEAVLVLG

- Kd (ACVR1): 1270 nM
- Kd (AURKB): 35.6 nM
- Kd (CDC42BPA): 1320 nM
- Kd (CDK1): 1910 nM
- Kd (CSK): 2170 nM
- Kd (FGFR1): 144 nM
- Kd (ITK): 38.6 nM
- Kd (LATS1): 48.9 nM
- Kd (MAP3K11): 231 nM
- Kd (MAP3K4): 90 nM
- Kd (PAK4): 424 nM
- Kd (PHKG2): 1150 nM
- Kd (PKN1): 1520 nM
- Kd (PRKAA1): 83 nM
- Kd (PRKCA): 966 nM
- Kd (PRKD3): 255 nM
- Kd (ROCK1): 2000 nM
- Kd (SRC): 808 nM
- Kd (TAOK2): 558 nM
- Kd (TAOK3): 878 nM
- Kd (TGFBR1): 1370 nM
SMILES: NC(=O)c1ccccc1Nc1nc(Nc2ccc(N3CCNCC3)cc2)ncc1Cl
- Kd (NEK9): 96.2 nM
